Results on 21 compounds are retold here after US9340549B2, “Oxazolidinone compounds and derivatives thereof” (priority 2012, dated 2016).

One may read the pIC50 as the IC50 on a negative log10 scale, so that one unit is a factor of ten. For orientation: pEC50 means −log10 of the EC50, conventionally taken in molar units.

Assay [1] relates to total β-catenin in SW480 colorectal cells. Briefly: cells. The class given is cell-based. The conditions noted are these: Homo sapiens. As to the method:
Total β-Catenin MSD 96-Well Plate Assay for SW480 Cells
SW480 colorectal cells were seeded at a density of 10,000/well in CellBIND 96-well plates (Corning catalog no. 3300) in 60 μL of normal growth medium (MEM alpha supplemented with 10% heat inactivated FBS, GlutaMAX, pyruvate, and 10 mM HEPES).
A 10-point, 3-fold dilution series for each TNKS inhibitor was constructed in a 96-well “stock” plate. […] The plates were incubated at 37° C. for 40 to 48 hours. The media was removed from the CellBIND plate via plate inversion and gentle shaking and the inverted plate was touched to a paper towel and immediately placed on ice. […] Plates containing cell lysates were sealed and shaken for one hour at 4° C. and then quickly frozen in a −80° C. for approximately 15 to 30 minutes followed by gradually thawing at 4° C. Finally, lysate containing plates were centrifuged @1000×g (2073 rpm) for 10 minutes at 4° C.
The sealed MSD plate was incubated overnight in a cold room with gentle shaking. The MSD plate was then blocked with 150 μL of Blocker “A” per well and incubated overnight at 4° C. with vigorous shaking. The blocked MSD plate was washed 4 times with 150 μL/well TBS-T wash buffer (150 mM NaCl, 50 mM Tris, pH 7.5, 0.02% Tween-20). Cell lysates (75 μL) were transferred to prepared MSD plates and incubated at 4° C. ON with gentle shaking. […] The detection antibody was incubated for 1 hour at room temperature with vigorous shaking after which plates were washed 3 times with 150 μL/well TBS-T wash buffer. Plates were processed for analysis by the addition of 150 μL/well MSD Read 4× Buffer T with surfactant (catalog no. R92TC-2; diluted 1:3 in deionized water) and were read on the SECTOR Imager 6000.

Assay [2] concerns the target 6×HIS-tankyrase 1 (1091-1325) (Homo sapiens (Human), UniProt O95271). Description: biochemical. The class given is biochemical. The conditions noted are these: 400 nM NAD, 60 minutes at room temperature, read-out: TNKS1 IP IC50.
Another assay relates to Axin2 in SW480 cells. Briefly: cells. The class given is cell-based. The conditions noted are these: Homo sapiens, read-out: Axin2 384 IF EC50 IP. The method, then: Using a VPrep, 10 μL of compound/controls was transferred from the compound plate to 60 μL in the cell plate (final 0.5% DMSO, 70 μL). The mixture was incubated for 24 hours at 37° C. at 5% CO2.
The extra media was tapped out. 50 μL of 4% paraformaldehyde (Fisher, AA433689M), 0.1% Triton (Sigma, X100-100 ML) in PBS were added, and the mixture was incubated for 15 minutes at room temperature. […] The extra media was tapped out and to this was added 50 μL of buffer containing Axin2 Antibody (Sigma, SAB1100677-200 µL) at 1:10000 in PBS, 0.1% Tween-20, 1% Normal Goat Serum. The mixture was incubated for 2 hours at room temperature or overnight at 4° C. The cells were then washed twice with PBS, 0.1% Tween-20, and 1% Normal Goat Serum. […] The mixture was then incubated for 30 minutes at room temperature. The cells were then washed twice with PBS, 0.1% Tween-20, and 1% Normal Goat Serum. 50-100 μL PBS was added, and the mixture was covered with a plate seal (Fisher, NC9425162). An ArrayScan (a variation of the compartmental analysis protocol was optimized) was used to scan the plates, and data was analyzed using MEAN_RingSpotAvgIntenCh2). The Axin2 accumulation POC was calculated, and the EC50 was determined using Genedata Screener software to report Axin2 activity.

Where [3] appears, read: SW480, read-out: SW480-Total β-Catenin IC50 IP.
[4] abbreviates: SW480 cells, 40 to 48 hours, top concentration 10 μM, read-out: SW480-Total β-Catenin IC50 IP.
The mark [5] stands for this setting: SW480, 24 h, SW480 cells, 24 hours.

Structures are written as SMILES. pEC50, pIC50: −log10 of the molar value. Read-outs that look alike come from different tables or passages of the source.

6×HIS-tankyrase 1 (1091-1325), sequence (O95271 1091-1325): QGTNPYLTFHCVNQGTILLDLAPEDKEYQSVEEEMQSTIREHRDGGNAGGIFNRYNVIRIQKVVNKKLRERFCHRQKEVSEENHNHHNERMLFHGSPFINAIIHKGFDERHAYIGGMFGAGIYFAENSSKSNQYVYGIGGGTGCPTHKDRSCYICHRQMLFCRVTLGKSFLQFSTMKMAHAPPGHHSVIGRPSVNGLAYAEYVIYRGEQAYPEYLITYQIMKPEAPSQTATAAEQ

Take `CC1(C)OC(=O)N([C@H]2CC[C@H](c3cc(-c4ncccn4)c[nH]c3=O)CC2)C1c1ccccc1` (mixture of isomers) [Example 7, (+/−)-3-(trans-4-((4S/R)-5,5-Dimethyl-2-oxo-4-phenyl-1,3-oxazolidin-3-yl)cyclohexyl)-5-(2-pyrimidinyl)-2(1H)-pyridinone]: the pIC50 in assay [1] (setting [3]) is 6.16; in assay [2] (0.25 nM enzyme) it was 7.50. Moreover, in the assay on Axin2 in SW480 cells (SW480, 24 h), the pEC50 was 5.84.

On to `COc1cccc(C2N(c3ccc(C(=O)Nc4cccc5cccnc45)cc3)C(=O)OC2(C)C)c1` (racemic) [Example 105, (+/−)-(R/S)-4-(4-(3-methoxyphenyl)-5,5-dimethyl-2-oxooxazolidin-3-yl)-N-(quinolin-8-yl)benzamide], for which the figures for the pIC50 in assay [1] (setting [4]) and in assay [2] (0.25 nM enzyme) were 5.49 and 6.82, respectively. Further, the pEC50 in the assay with Axin2 in SW480 cells (setting [5]) was 5.05.

On to `COc1ccc(C2N(c3ccc(C(=O)Nc4cccc5cccnc45)cc3)C(=O)OC2(C)C)cc1` (racemic) [Example 111, (+/−)-(R/S)-4-(4-(4-methoxyphenyl)-5,5-dimethyl-2-oxooxazolidin-3-yl)-N-(quinolin-8-yl)benzamide], for which the values for the pIC50 in assay [1] (setting [4]) and in assay [2] (0.25 nM enzyme) were 5.61 and 6.20, respectively. Besides, the pEC50 in the assay on Axin2 in SW480 cells (setting [5]) is 5.14.

On to `CC1(C)OC(=O)N([C@@H]2CC=C(c3cc(-c4ncccn4)c[nH]c3=O)CC2)[C@H]1c1ccccc1` (single isomer, unassigned) [Example 5], for which the negative logarithm of the IC50 (pIC50) in assay [1] (setting [4]) is 6.35; in assay [2] ([…] enzyme), 7.62. Besides, the pEC50 in the assay with Axin2 in SW480 cells (setting [5]) is 6.09.

`CC1(C)OC(=O)N([C@H]2CC=C(c3cc(-c4ncccn4)c[nH]c3=O)CC2)[C@H]1c1ccccc1` (single isomer, unassigned) [Example 6]: the pIC50 is 6.23 in assay [1] (setting [4]) and 7.33 in assay [2] ([…] enzyme). In the assay with Axin2 in SW480 cells (setting [5]), the negative logarithm of the EC50 (pEC50) was 5.58.

For the compound `CC1(C)OC(=O)N([C@H]2CC[C@H](c3cnc4[nH]c(=O)n(-c5ncccn5)c4c3)CC2)[C@@H]1c1ccccc1` (single isomer, unassigned) [Example 14], the pIC50 was 6.03 in assay [1] (setting [4]) and 7.57 in assay [2] ([…] enzyme). The pEC50 in the assay on Axin2 in SW480 cells (setting [5]) is 5.99.

As for `C[C@@]1(c2ccccc2)CN([C@H]2CC[C@H](n3c(=O)[nH]c4cnccc43)CC2)C(=O)O1` (single isomer, unassigned) [Example 90], the values for the pIC50 in assay [1] (setting [4]) and in assay [2] ([…] enzyme) were below 5.00 and 6.11, respectively. For the same compound, the pEC50 in the assay with Axin2 in SW480 cells (setting [5]) is below 4.60.

In the case of `C[C@]1(c2ccccc2)CN([C@H]2CC[C@H](n3c(=O)[nH]c4cnccc43)CC2)C(=O)O1` (single isomer, unassigned) [Example 91], the values for the pIC50 in assay [1] (setting [4]) and in assay [2] ([…] enzyme) were 5.44 and 8.05, respectively. The pEC50 in the assay on Axin2 in SW480 cells (setting [5]) is 5.35.

`CC1(C)OC(=O)N(c2ccc(-c3cnc(N)c(-c4cnnc(Cl)c4)c3)cc2)[C@H]1c1ccccc1` (single isomer, unassigned) [Example 101]: the pIC50 in assay [1] (setting [4]) was 6.68; in assay [2] ([…] enzyme), 7.79. Besides, in the assay on Axin2 in SW480 cells (setting [5]), the pEC50 is 6.71.

Regarding `CC1(C)OC(=O)N([C@H]2CC[C@H](n3c(=O)[nH]c4cc(Cl)ccc43)CC2)[C@H]1c1ccccc1` [Example 29, (S)-3-((1r,4S)-4-(5-chloro-2-oxo-2,3-dihydro-1H-benzo[d]imidazol-1-yl)cyclohexyl)-5,5-dimethyl-4-phenyloxazolidin-2-one], in assay [1] (setting [4]), the pIC50 is 6.27. In the assay on Axin2 in SW480 cells (setting [5]), the pEC50 is 5.59.

As for `CC1(C)OC(=O)N([C@H]2CC[C@H](n3c(=O)[nH]c4ncccc43)CC2)[C@H]1c1ccccc1` [Example 30, (S)-5,5-dimethyl-3-((1r,4S)-4-(2-oxo-2,3-dihydro-1H-imidazo[4,5-b]pyridin-1-yl)cyclohexyl)-4-phenyloxazolidin-2-one], in assay [1] (setting [4]), the negative logarithm of the IC50 (pIC50) was 5.95. The pEC50 in the assay on Axin2 in SW480 cells (setting [5]) was 5.70.

Consider `CC1(C)OC(=O)N([C@H]2CC[C@H](n3c(=O)[nH]c4ncccc43)CC2)[C@@H]1c1ccccc1` [Example 31, (R)-5,5-dimethyl-3-((1r,4R)-4-(2-oxo-2,3-dihydro-1H-imidazo[4,5-b]pyridin-1-yl)cyclohexyl)-4-phenyloxazolidin-2-one], for which the pIC50 in assay [1] (setting [4]) is 5.58. The pEC50 with Axin2 in SW480 cells (setting [5]) is 4.76.

Take `CC1(C)OC(=O)N([C@H]2CC[C@H](n3c(=O)[nH]c4cccnc43)CC2)C1c1ccccc1` (stereo partly drawn) [Example 36, (R+S) 5,5-dimethyl-3-((1r,4r)-4-(2-oxo-1H-imidazo[4,5-b]pyridin-3(2H)-yl)cyclohexyl)-4-phenyloxazolidin-2-one]: the pIC50 in assay [1] (setting [4]) was 5.91. Also, in the assay with Axin2 in SW480 cells (setting [5]), the pEC50 is 5.36.

For the compound `CC1(C)OC(=O)N([C@H]2CC[C@H](n3c(=O)[nH]c4cncnc43)CC2)[C@H]1c1ccccc1` [Example 50, (S)-5,5-dimethyl-3-((1r,4S)-4-(8-oxo-7H-purin-9(8H)-yl)cyclohexyl)-4-phenyloxazolidin-2-one], the pIC50 in assay [1] (setting [4]) was 6.53. Also, the pEC50 with Axin2 in SW480 cells (setting [5]) was 6.41.

Turning to `CC1(C)OC(=O)N([C@H]2CC[C@H](n3c(=O)[nH]c4c(C#N)cccc43)CC2)[C@H]1c1ccccc1` [Example 51, 1-((1S,4r)-4-((S)-5,5-dimethyl-2-oxo-4-phenyloxazolidin-3-yl)cyclohexyl)-2-oxo-2,3-dihydro-1H-benzo[d]imidazole-4-carbonitrile], the pIC50 in assay [1] (setting [4]) was 6.56. The pEC50 in the assay with Axin2 in SW480 cells (SW480 cells, 24 hours) was 6.34.

Regarding `CC1(C)OC(=O)N([C@H]2CC[C@H](n3c(=O)[nH]c4cc(Br)cnc43)CC2)[C@H]1c1ccccc1` [Example 56, (S)-3-((1r,4S)-4-(6-bromo-2-oxo-1H-imidazo[4,5-b]pyridin-3(2H)-yl)cyclohexyl)-5,5-dimethyl-4-phenyloxazolidin-2-one], in assay [1] (setting [4]), the negative logarithm of the IC50 (pIC50) is 6.19. Moreover, the pEC50 in the assay on Axin2 in SW480 cells (SW480 cells, 24 hours) is 6.17.

Regarding `CC1(C)OC(=O)N([C@H]2CC[C@H](n3c(=O)[nH]c4cc(C#N)cnc43)CC2)[C@H]1c1ccccc1` [Example 57, 3-((1S,4r)-4-((S)-5,5-dimethyl-2-oxo-4-phenyloxazolidin-3-yl)cyclohexyl)-2-oxo-2,3-dihydro-1H-imidazo[4,5-b]pyridine-6-carbonitrile], in assay [1] (setting [4]), the pIC50 was 6.76. Also, the pEC50 with Axin2 in SW480 cells (SW480 cells, 24 hours) was 6.10.

Turning to `CC1(C)OC(=O)N([C@H]2CC[C@H](n3c(=O)[nH]c4c(F)c(C#N)ccc43)CC2)[C@H]1c1ccccc1` [Example 60, 1-((1S,4r)-4-((S)-5,5-dimethyl-2-oxo-4-phenyloxazolidin-3-yl)cyclohexyl)-4-fluoro-2-oxo-2,3-dihydro-1H-benzo[d]imidazole-5-carbonitrile], the pIC50 in assay [1] (setting [4]) is 7.12. Besides, the pEC50 in the assay with Axin2 in SW480 cells (SW480 cells, 24 hours) is 7.21.

For `CC1(C)OC(=O)N([C@H]2CC[C@H](c3cnc(N)c(-c4ncccn4)c3)CC2)[C@H]1c1ccccc1` [Example 74, (S)-3-((1r,4S)-4-(6-amino-5-(pyrimidin-2-yl)pyridin-3-yl)cyclohexyl)-5,5-dimethyl-4-phenyloxazolidin-2-one], the pIC50 in assay [1] (setting [3]) is 7.04. The pEC50 in the assay on Axin2 in SW480 cells (SW480, 24 h) is 7.28.

On to `CC1(C)OC(=O)N([C@H]2CC[C@H](c3cnc(N)c(-c4ncccn4)c3)CC2)[C@@H]1c1ccccc1` [Example 75, (R)-3-((1r,4R)-4-(6-amino-5-(pyrimidin-2-yl)pyridin-3-yl)cyclohexyl)-5,5-dimethyl-4-phenyloxazolidin-2-one], for which the pIC50 in assay [1] (setting [3]) is 5.80. In addition, the pEC50 with Axin2 in SW480 cells (SW480, 24 h) was 5.57.

In the case of `CC1(C)OC(=O)N(c2ccc(-c3cc(-c4ncco4)c[nH]c3=O)cc2)[C@H]1c1ccccc1` [Example 116, (S)-5,5-dimethyl-3-(4-(5-(oxazol-2-yl)-2-oxo-1,2-dihydropyridin-3-yl)phenyl)-4-phenyloxazolidin-2-one], the pIC50 in assay [1] (setting [4]) was 6.04. In addition, the pEC50 with Axin2 in SW480 cells (setting [5]) was below 5.20.
